US20180072675A1, “ANTIMICROBIAL PYRIDINOHYDRAZIDE AND HYDRAZOMETHYLPYRIDINE-BASED AGENTS” (Board of Supervisors of Louisiana State University and …, priority 2015, published 2018)
Converted amounts (≈) assume the structure as drawn.

What was measured:
[1] = tested on: C. albicans clinical isolate 1 (TW1); experiment: MIC80 fungal growth inhibition, clinical isolate TW1; assay type: cell-based, Candida albicans; settings: Azole-susceptible, >80% growth inhibition, visual scoring; for MIC80: Candida albicans, read-out: MIC80 TW1
Description: (§1) The antifungal activity of the pyridinohydrazide and hydrazomethylpyridine derivatives described in the s were evaluated in vitro using Candida albicans (ATCC Accession No. 10231) and Candida glabrata (ATCC Accession No. 48435). In addition, the compounds were evaluated for activity against two previously-described clinical isolates of C. albicans known to have developed azole-resistance. These isolates were obtained over a two year period from a single AIDS patient and the development of the azole-resistance mechanisms have been extensively characterized (White T C. Antimicrob. Agents Chemother. (1997) 41: 1482-1487). MIC assays were performed on the clinical isolates 1 and 17 (annotated TW1 and TW17, respectively), where isolate 1 was used as an azole-susceptible control and isolate 17 was considered azole-resistant. All assays were done in accordance with NCCLS reference documents (Clinical Laboratory and Standards Institute. Reference method for Broth Dilution Antifungal Susceptibility Testing of Yeasts: Approved Standard. M27-A3 2010; 28). The results of these screenings are summarized in Tables 1-9 (Examples 20-27) as the minimum concentrations that inhibited more than 80% of fungal growth (MIC80) as compared to positive controls containing 1% DMSO. Assays were performed in HEPES-buffered RPMI-1640 media. All MIC screens used a visual scoring method as opposed to spectroscopic analysis, due to the altered absorbance spectra of many of the compounds.

[2] = tested on: Candida glabrata (ATCC Accession No. 48435); experiment: MIC80 fungal growth inhibition, C. glabrata ATCC 48435; assay type: cell-based; settings: for MIC80: Nakaseomyces glabratus, ATCC48435, read-out: MIC80 C. glabrata ATCC No. 48435; for MIC80 / MIC80 C. glabrata ATCC No. 48435: Azole-resistant, >80% growth inhibition, visual scoring
Description: as §1

[3] = tested on: Candida albicans (ATCC Accession No. 10231); experiment: MIC80 fungal growth inhibition, C. albicans ATCC 10231; assay type: cell-based; settings: Azole-susceptible, >80% growth inhibition, visual scoring; for MIC80: Candida albicans, ATCC10231, read-out: MIC80 C. albicans ATCC No. 10231
Description: as §1

[4] = tested on: C. albicans clinical isolate 17 (TW17); experiment: MIC80 fungal growth inhibition, clinical isolate TW17; assay type: cell-based, Candida albicans; settings: Azole-resistant, >80% growth inhibition, visual scoring; for MIC80: Candida albicans, read-out: MIC80 TW17
Description: as §1

Candida strain TW17 = experiment: Time-kill assay; assay type: cell-based, Candida albicans; settings: four times the MIC for TW17, 48 h
Description: FIG. 9 illustrates time-kill assays, for representative analogs that were active against the azole-resistant TW17, to determine the cidal or static nature of the analog tested. 100 μl of each sample was spread onto YM agar plates with a sterile bent spreading rod. Plates were incubated at 35° C. overnight and colonies were then counted on each plate.
One of the objectives of this study was to determine the cidal or static nature of the analogs that were active against such as TW17, the azole-resistant clinical isolate. Azoles affect Candida spp. by inhibiting ergosterol biosynthesis, and ultimately prevent their reproduction. This effect has led to the classification of azoles as fungistats. Determining the fungistatic or fungicidal nature of the synthesized compounds of the present disclosure allows a comparison to azoles, in addition to improving the understanding of how the structural motifs might lend toward an alternate mechanism of action. Therefore, time-kill assays were performed using the representative analogs that were active against the azole-resistant TW17 at concentrations at or below 8 μg/mL.
Solid drugs were dissolved in DMSO to a concentration of 10 mg/ml. This stock solution was then further diluted in water to the desired experimental concentration, determined to be four times that of the MIC for the Candida strain TW17 (as reported in the Tables).
Individual colonies of TW17 were suspended in 5 ml of sterile water and adjusted to achieve a McFarland reading between 0.08 and 0.12. The inoculum was then further diluted in sterile water at a ratio of 1:100. Three […] tissue culture tubes were prepared by combining 2.5 ml of above diluted inoculum, 21.7 ml of HEPES buffered RPMI-1640 media, and 800 μl of experimental drug dilution. A “Growth Control” tube was prepared by combining 2.5 ml of inoculum, 21.7 HEPES buffered RPMI-1640 media, and 800 μl of water-DMSO solution equal to the DMSO concentration of the experimental drug dilution. A “Sterile Control” tube was prepared by combining 24.2 ml of HEPES-buffered RPMI-1640 media and 800 μl of water-DMSO solution as in the “Growth Control”. All tubes were incubated for 48 hours at 35° C., 50 rpm. 500 μl samples were taken from the tubes at time points of predetermined intervals during this incubation.
Time points for the “Kill-Curve” and “Growth Control” tubes were taken at 0, 1, 2, 4, 6, 8, 24, and 48 h after the start of incubation. Time points for “Sterile Control” were taken at 0 and 48 hours. Each time point sample was serially diluted 1:10 in sterile 0.9% NaCl solution up to 5 times. 100 μl of each sample was spread onto YM agar plates with a sterile bent spreading rod. Plates were incubated at 35° C. overnight and colonies were then counted on each plate. Colonies on plates from diluted time points were used to estimate uncountable undiluted samples. The number of colonies in undiluted samples was estimated to be 10^n times greater than the diluted sample, where n was the number of dilutions made.

[5] = tested on: Candida albicans ATCC Accession No. 10231; experiment: Checkerboard synergy assay with fluconazole; assay type: cell-based
Description: Considering that two different modes of activity (cidal and static) were observed depending on the structural motifs present in our analogs, we performed a series of checkerboard assays to determine if representative active compounds were in fact acting in synergy with the azole, fluconazole. Each of these assays tested multiple concentrations of the selected analog in the presence of multiple concentrations of fluconazole. All checkerboard assays were prepared in 96-well plates. 200 μl of previously prepared drug solutions were added to each well in column 2. Using a multichannel pipette, 100 μl from each well in column 2 was serially diluted (1:2) horizontally across the plate, stopping at column 10. Contents of each well were mixed thoroughly. Column 11 was reserved for fluconazole MIC control and contained no other drug. 100 μl of media was added to each well, column 2-10. Each well was mixed thoroughly with a multichannel pipette. 100 μl was then removed and discarded from these wells. 100 μl of previously prepared fluconazole dilution was added to each well in row B. Using a multichannel pipette, 100 μl from each well was serially diluted (1:2) vertically down the plate, stopping at row F. Contents of each well were mixed thoroughly. Row G was reserved for tested drug MIC control and contained no fluconazole. Well G11 contained neither drug and served as a drug-free growth control. The final 100 μl from each well in row F was discarded.
The fungal samples were prepared from glycerol stocks of Candida albicans ATCC Accession No. 10231. The inoculum's concentration was adjusted to a McFarland standard between 0.08 and 0.12. Inoculum was then diluted at a ratio of 1:37.5 in buffered media. 100 μl of inoculum-media solution was added to each well. Following inoculation, the 96-well plates were wrapped in parafilm to prevent evaporation and incubated for overnight at 35° C. After 18 h, the wells showing growth were recorded.
Synergistic activity was determined based on the MIC read from these plates. The fractional inhibitory concentration (FIC) for a given well is the ratio of the minimum inhibitory concentration of one drug A in the presence another drug B to the minimum inhibitory concentration with only drug A. The FIC was calculated for the test drug in each of the wells along the growth/no-growth interface at varying concentrations of fluconazole, then these values were averaged to determine the average FIC for the test drug. The same process was used to calculate the average FIC for fluconazole at varying concentrations of the test drug. The sum of these two FICs gives the FIC index which can be used to determine the synergistic effect between the two drugs (Hsieh et al., Diagn. Microbiol. Infect. Dis. (1993) 16: 343-349). An FIC index value less than 1 indicated synergistic interactions between the two drugs while an FIC index value greater than or equal to 1 indicated antagonistic interactions.

SMILES	MIC80 [1] [µg/mL]	MIC80 [2] [µg/mL]	MIC80 [3] [µg/mL]	MIC80 [4] [µg/mL]	MIC80 TW1 [1] [µg/mL]	MIC80 C. glabrata ATCC No. 48435 [2] [µg/mL]	MIC80 C. albicans ATCC No. 10231 [3] [µg/mL]	MIC80 TW17 [4] [µg/mL]	other results
O=C(N/N=C/c1ccccc1O)c1ccccn1 [AR1, (E)-N′-(2-hydroxybenzylidene)picolinohydrazide]	62 (≈ 257 µM)	8 (≈ 33.2 µM)	16 (≈ 66.3 µM)	–	–	–	–	–	–
COc1ccc(O)c(/C=N/NC(=O)c2ccccn2)c1 [AR3, (E)-N′-(2-Hydroxy-5-methoxybenzylidene)picolinohydrazide]	8 (≈ 29.5 µM)	1 (≈ 3.69 µM)	4 (≈ 14.7 µM)	31 (≈ 114 µM)	–	–	–	–	–
O=C(N/N=C/c1cc([N+](=O)[O-])ccc1O)c1ccccn1 [AR6, (E)-N′-(2-hydroxy-5-nitrobenzylidene)picolinohydrazide]	8 (≈ 27.9 µM)	8 (≈ 27.9 µM)	4 (≈ 14 µM)	8 (≈ 27.9 µM)	–	–	–	–	Cidal vs Static (Candida strain TW17): Static; FIC Fluc ([5]; average FIC of fluconazole at varying concentrations of the test drug): 1.00; FIC Test ([5]; average FIC of the test drug at varying concentrations of fluconazole): 1.00; Activity (interaction with fluconazole) ([5]; from FIC index): Antagonistic; FIC Index ([5]; sum of the two FICs, <1 synergistic, >=1 antagonistic): 2.00
O=C(N/N=C/c1ccccc1O)c1cccnc1 [AR7]	4 (≈ 16.6 µM)	16 (≈ 66.3 µM)	4 (≈ 16.6 µM)	31 (≈ 128 µM)	–	–	–	–	–
COc1ccc(O)c(/C=N/NC(=O)c2cccnc2)c1 [AR9]	–	–	–	–	16 (≈ 59 µM)	4 (≈ 14.7 µM)	62 (≈ 229 µM)	4 (≈ 14.7 µM)	–
O=C(N/N=C/c1cc(Cl)ccc1O)c1cccnc1 [AR10]	8 (≈ 29 µM)	8 (≈ 29 µM)	4 (≈ 14.5 µM)	62 (≈ 225 µM)	–	–	–	–	–
O=C(NN=Cc1cc(Br)ccc1O)c1cccnc1 [AR11]	–	–	–	–	8 (≈ 25 µM)	16 (≈ 50 µM)	4 (≈ 12.5 µM)	16 (≈ 50 µM)	–
O=C(NN=Cc1ccccc1O)c1ccncc1 [AR13]	–	–	–	–	4 (≈ 16.6 µM)	16 (≈ 66.3 µM)	8 (≈ 33.2 µM)	31 (≈ 128 µM)	–
Cc1ccc(O)c(C=NNC(=O)c2ccncc2)c1 [AR14]	–	–	–	–	16 (≈ 62.7 µM)	31 (≈ 121 µM)	4 (≈ 15.7 µM)	31 (≈ 121 µM)	–
COc1ccc(O)c(/C=N/NC(=O)c2ccncc2)c1 [AR15]	16 (≈ 59 µM)	4 (≈ 14.7 µM)	4 (≈ 14.7 µM)	16 (≈ 59 µM)	–	–	–	–	–
O=C(NN=Cc1cc(Cl)ccc1O)c1ccncc1 [AR16]	–	–	–	–	16 (≈ 58 µM)	16 (≈ 58 µM)	31 (≈ 112 µM)	125 (≈ 453 µM)	–
O=C(NN=Cc1cc(Br)ccc1O)c1ccncc1 [AR17]	–	–	–	–	16 (≈ 50 µM)	64 (≈ 200 µM)	16 (≈ 50 µM)	125 (≈ 390 µM)	–
Cc1ccc(O)c(/C=N/NC(=O)c2cccnc2O)c1 [AR20]	–	2 (≈ 7.37 µM)	–	–	–	–	–	–	–
O=C(NN=Cc1cc(Br)ccc1O)c1cccnc1O [AR22]	–	–	–	–	–	0.5 (≈ 1.49 µM)	–	–	potency against Candida glabrata (in words) [2]: one of the most potent compounds
O=C(NN=Cc1ccccc1O)c1ccc[n+]([O-])c1 [AR23]	–	–	–	–	31 (≈ 121 µM)	16 (≈ 62.2 µM)	31 (≈ 121 µM)	31 (≈ 121 µM)	–
Cc1ccc(O)c(C=NNC(=O)c2ccc[n+]([O-])c2)c1 [AR24]	–	–	–	–	16 (≈ 59 µM)	31 (≈ 114 µM)	16 (≈ 59 µM)	16 (≈ 59 µM)	–
COc1ccc(O)c(/C=N/NC(=O)c2ccc[n+]([O-])c2)c1 [AR25]	62 (≈ 216 µM)	4 (≈ 13.9 µM)	16 (≈ 55.7 µM)	31 (≈ 108 µM)	–	–	–	–	–
O=C(N/N=C/c1cc(Cl)ccc1O)c1ccc[n+]([O-])c1 [AR26]	31 (≈ 106 µM)	4 (≈ 13.7 µM)	16 (≈ 54.9 µM)	31 (≈ 106 µM)	–	–	–	–	–
O=C(NN=Cc1ccccn1)c1ccccc1 [AR31]	–	–	–	–	31 (≈ 138 µM)	62 (≈ 275 µM)	62 (≈ 275 µM)	62 (≈ 275 µM)	–
O=C(NN=Cc1ccccn1)c1ccccc1O [AR32]	–	–	–	–	31 (≈ 128 µM)	4 (≈ 16.6 µM)	31 (≈ 128 µM)	62 (≈ 257 µM)	–
O=C(NN=Cc1ccccn1)c1cccnc1 [AR35]	–	–	–	–	62 (≈ 274 µM)	125 (≈ 553 µM)	125 (≈ 553 µM)	62 (≈ 274 µM)	–
O=C(NN=Cc1ccccn1)c1ccncc1 [AR36]	–	–	–	–	62 (≈ 274 µM)	125 (≈ 553 µM)	125 (≈ 553 µM)	125 (≈ 553 µM)	–
O=C(NN=Cc1ccccn1)c1ccc[n+]([O-])c1 [AR38]	–	–	–	–	62 (≈ 256 µM)	125 (≈ 516 µM)	125 (≈ 516 µM)	125 (≈ 516 µM)	–
